This data set can be described thus: Effect of cGMP on drug uptake: atenolol in blood after intraduodenal infusion. It counts as in vivo, rat. The note with it: atenolol 1 mg/kg intraduodenal; 0.2 ml of 10 mM cGMP 15 minutes prior to and 15 minutes after atenolol; same rats, FIG. 4. As to the method: Thus, a model drug, atenolol, was introduced directly into the lumen of the rat's small intestine, and the concentration of atenolol was measured in the blood over time. The blood values and concentration kinetics of the model drug were compared after infusion into the intestine alone or when infused with cGMP. Atenolol was quantified using conventional liquid chromatography/mass spectrometry methods.
Outbred male rats (Sprague Dawley, Harlan Sprague Dawley, Inc., Indianapolis, Ind.) were housed singly and maintained on a 12-hour light/12-hour dark cycle. All rats used in this bioassay procedure were uninfected with tapeworm. For intestinal infusion, rats (n=2) were lightly sedated, and an indwelling cannula was implanted into the duodenal lumen in each of two rats. […] In brief, the animal preparation involved the following: a cannula was surgically implanted into the duodenal region of each test rat. The cannula extended from the lumen of the duodenum, across the peritoneum, under the skin to the abdominal wall, and finally to an exit from the skin at the nape of the neck. […] During the surgery, both cannulas were filled with sterile saline and plugged with metal pins. Rats were allowed at least five days to recover from implantation surgery before any manipulation occurred. All rats were housed individually after surgery to prevent damage to the cannulas. […]

`Nc1nc2c(ncn2C2OC3COP(=O)(O)OC3C2O)c(=O)[nH]1` (stereo not shown) [cGMP, guanosine cyclic 3′, 5′-hydrogen phosphate]: the “amount of atenolol in the blood over the 20-minute period, with cGMP versus atenolol alone” value is “almost doubles”.
